Laboratory results taken from ChEMBL document CHEMBL2040762, “Hypnotic effects and GABAergic mechanism of licorice (Glycyrrhiza glabra) ethanol extract and its major flavonoid constituent glabrol” (Bioorg Med Chem, 2012).
Active and inactive are the calls of the source.

Tests used:
[1] = Displacement of [3H]flumazenil from GABA(A)-BZD receptor in Sprague-Dawley rat cerebral cortex membranes after 40 mins by liquid scintillation counting; assay type: cell membranes, Membrane
Mus musculus [2] = assay: Hypnotic activity in po dosed fasted C57BL/6N mouse assessed as decrease in latency of pentobarbital-induced sleep administered 45 mins prior to pentobarbital-induction by polysomnographic analysis; assay type: functional, organism-based
Mus musculus [3] = assay: Hypnotic activity in po dosed fasted C57BL/6N mouse assessed as increase in pentobarbital-induced sleep duration administered 45 mins prior to pentobarbital-induction by polysomnographic analysis; assay type: functional, organism-based
Mus musculus [4] = assay: Hypnotic activity in fasted C57BL/6N mouse assessed as […] in latency of pentobarbital-induced sleep at 50 mg/kg, po administered 45 mins prior to pentobarbital-induction by polysomnographic analysis; assay type: functional, organism-based; design: dose 50 mg/kg
Mus musculus [5] = assay: Hypnotic activity in fasted C57BL/6N mouse assessed as increase in pentobarbital-induced sleep duration at 50 mg/kg, po administered 45 mins prior to pentobarbital-induction by polysomnographic analysis; assay type: functional, organism-based; design: dose 50 mg/kg
Mus musculus [6] = assay: Hypnotic activity in fasted C57BL/6N mouse assessed as increase in pentobarbital-induced sleep duration at 50 mg/kg, po administered 45 mins prior to pentobarbital-induction coadministered with flumazenil by polysomnographic analysis; assay type: functional, organism-based; design: dose 50 mg/kg
Mus musculus [7] = assay: Hypnotic activity in fasted C57BL/6N mouse assessed as decrease in latency of pentobarbital-induced sleep at 50 mg/kg, po administered 45 mins prior to pentobarbital-induction coadministered with flumazenil by polysomnographic analysis; assay type: functional, organism-based; design: dose 50 mg/kg
Mus musculus [8] = assay: Hypnotic activity in po dosed fasted C57BL/6N mouse assessed as decrease in latency of pentobarbital-induced sleep at 2 mg/kg, po administered 45 mins prior to pentobarbital-induction by polysomnographic analysis; assay type: functional, organism-based; design: dose 2 mg/kg
Mus musculus [9] = assay: Hypnotic activity in po dosed fasted C57BL/6N mouse assessed as decrease in pentobarbital-induced non-rapid eye movement sleep duration at 2 mg/kg, po administered 45 mins prior to pentobarbital-induction by polysomnographic analysis; assay type: functional, organism-based; design: dose 2 mg/kg
Mus musculus [10] = assay: Hypnotic activity in po dosed fasted C57BL/6N mouse assessed as effect on pentobarbital-induced rapid eye movement sleep duration at 2 mg/kg, po administered 45 mins prior to pentobarbital-induction by polysomnographic analysis; assay type: functional, organism-based; design: dose 2 mg/kg
Mus musculus [11] = assay: Hypnotic activity in po dosed fasted C57BL/6N mouse assessed as increase in pentobarbital-induced non-rapid eye movement sleep duration at 2 mg/kg, po administered 45 mins prior to pentobarbital-induction measured up to 2 hrs by polysomnographic analysis; assay type: functional, organism-based; design: dose 2 mg/kg
Mus musculus [12] = assay: Hypnotic activity in po dosed fasted C57BL/6N mouse assessed as change in pentobarbital-induced non-rapid eye movement sleep duration at 2 mg/kg, po administered 45 mins prior to pentobarbital-induction measured up to 3 hrs by polysomnographic analysis; assay type: functional, organism-based; design: dose 2 mg/kg
Mus musculus [13] = assay: Hypnotic activity in po dosed fasted C57BL/6N mouse assessed as change in pentobarbital-induced rapid eye movement sleep duration at 2 mg/kg, po administered 45 mins prior to pentobarbital-induction measured up to 3 hrs by polysomnographic analysis; assay type: functional, organism-based; design: dose 2 mg/kg
Mus musculus [14] = assay: Hypnotic activity in po dosed fasted C57BL/6N mouse assessed as decrease in pentobarbital-induced non-rapid eye movement sleep EEG delta activity at 2 mg/kg, po administered 45 mins prior to pentobarbital-induction by polysomnographic analysis; assay type: functional, organism-based; design: dose 2 mg/kg
Mus musculus [15] = assay: Hypnotic activity in fasted C57BL/6N mouse assessed as increase in pentobarbital-induced sleep duration at 0.5 mg/kg, po administered 45 mins prior to pentobarbital-induction coadministered with flumazenil by polysomnographic analysis; assay type: functional, organism-based; design: dose 0.5 mg/kg
Mus musculus [16] = assay: Hypnotic activity in fasted C57BL/6N mouse assessed as increase in pentobarbital-induced sleep duration at 2 mg/kg, po administered 45 mins prior to pentobarbital-induction coadministered with flumazenil by polysomnographic analysis; assay type: functional, organism-based; design: dose 2 mg/kg
Mus musculus [17] = assay: Hypnotic activity in fasted C57BL/6N mouse assessed as decrease in pentobarbital-induced sleep latency at 2 mg/kg, po administered 45 mins prior to pentobarbital-induction coadministered with flumazenil by polysomnographic analysis; assay type: functional, organism-based; design: dose 2 mg/kg
Mus musculus [18] = assay: Hypnotic activity in fasted C57BL/6N mouse assessed as increase in pentobarbital-induced sleep duration at 2.5 mg/kg, po administered 45 mins prior to pentobarbital-induction coadministered with flumazenil by polysomnographic analysis; assay type: functional, organism-based; design: dose 2.5 mg/kg
Mus musculus [19] = assay: Hypnotic activity in fasted C57BL/6N mouse assessed as […] in latency of pentobarbital-induced sleep at 10 mg/kg, po administered 45 mins prior to pentobarbital-induction by polysomnographic analysis; assay type: functional, organism-based; design: dose 10 mg/kg
Mus musculus [20] = assay: Hypnotic activity in fasted C57BL/6N mouse assessed as increase in pentobarbital-induced sleep duration at 10 mg/kg, po administered 45 mins prior to pentobarbital-induction by polysomnographic analysis; assay type: functional, organism-based; design: dose 10 mg/kg
Mus musculus [21] = assay: Hypnotic activity in fasted C57BL/6N mouse assessed as increase in pentobarbital-induced sleep duration at 10 mg/kg, po administered 45 mins prior to pentobarbital-induction coadministered with flumazenil by polysomnographic analysis; assay type: functional, organism-based; design: dose 10 mg/kg
Mus musculus [22] = assay: Hypnotic activity in fasted C57BL/6N mouse assessed as decrease in pentobarbital-induced sleep latency at 10 mg/kg, po administered 45 mins prior to pentobarbital-induction coadministered with flumazenil by polysomnographic analysis; assay type: functional, organism-based; design: dose 10 mg/kg

CC(C)=CCc1cc([C@@H]2CC(=O)c3ccc(O)c(CC=C(C)C)c3O2)ccc1O [GLABROL]
1.63 µM: Ki [1]
inactive: Activity (Mus musculus [6]) | Activity (Mus musculus [7])
active: Activity (Mus musculus [2]) Dose-dependent effect | Activity (Mus musculus [3]) Dose-dependent effect | Activity (Mus musculus [4]) | Activity (Mus musculus [5])

CN1C(=O)CN=C(c2ccccc2)c2cc(Cl)ccc21
inactive: Activity (Mus musculus [10]) | Activity (Mus musculus [12]) | Activity (Mus musculus [13]) | Activity (Mus musculus [15]) | Activity (Mus musculus [16]) | Activity (Mus musculus [17])
active: Activity (Mus musculus [8]) | Activity (Mus musculus [9]) | Activity (Mus musculus [11]) | Activity (Mus musculus [14])

Cc1ccc(-c2nc3ccc(C)cn3c2CC(=O)N(C)C)cc1
active: Activity (Mus musculus [19]) | Activity (Mus musculus [20])
inactive: Activity (Mus musculus [18]) | Activity (Mus musculus [21]) | Activity (Mus musculus [22])
